In patent US20220362122A1, “Hair Treatment Compositions With Amine Derivatives” (ELC Management LLC, priority 2021, published 2022):
Entries after “also recorded” stand apart in the source; their conditions may differ. Read-outs that look alike come from different tables or passages of the source. Marks after values point to notes of the source that are not given here.

Assays:
[1] = for L Value: single alkalizer composition + volume 40 oxidizer developer on hair tresses, 37° C., 45 minutes, virgin 19; for Lifting level normalized to NH3•H2O / Relative lifting level in percentage (LVirgin-LAlkalizer)/(LVirgin-LNaOH) / ΔL (change in color lifting) LVirgin-LAlkalizer: single alkalizer compositions, Table 5; for lifting of natural hair color, comparison in words: single alkalizer/oxidizer mixtures
outer root sheath cells = assay: MultiTox-Fluor Multiplex Cytotoxicity Assay, outer root sheath cells; assay type: cell-based; settings: for IC50: greater IC50 = less stress on the cells, unit inferred; for toxicity to the cell, comparison in words: outer root sheath cells
Procedure: (§1) The effects of alkalizer compositions on outer root sheath cells and on keratinocytes was evaluated. The MultiTox-Fluor Multiplex Cytotoxicity Assay (Promega Corp., Madison, Wis.) simultaneously measures two protease activities: one is a marker of cell viability, and the other is a marker of cytotoxicity. In the assays, the responses of outer root sheath cells and keratinocytes to various concentrations of alkalizers were measured, and IC50, the concentration that provokes a mid-height response (midway between the baseline response and maximal response), was determined.

keratinocytes = assay: MultiTox-Fluor Multiplex Cytotoxicity Assay, keratinocytes; assay type: cell-based; settings: for IC50: Keratinocyte, greater IC50 = less stress on the cells, unit inferred; for toxicity to the cell, comparison in words: keratinocytes
Procedure: as §1

[2] = alkalizer composition; 22° C., T-F spindle, 6 rpm
[3] = alkalizer composition
[4] = pH of alkalizer composition
[5] = alkalizer composition: Table 2 base + alkalizer, same molar percentage
[6] = Table 13 Serinol-Tris series, mole ratio Serinol/Tris, virgin hair 20.4
[7] = Table 12 AEPD-Tris series, mole ratio AEPD/Tris, virgin hair 20.4

Compound	ΔT (change in denaturation temperature) TVirgin-TAlkalizer (keratin in hair)	Viscosity (cP × 10^5) [2] [cP × 10^5]	Alkalinity [3] [mL/g]	pH [4, 5]	pH [4]	% Relative damage level compared to NaOH (TVirgin-TAlkalizer)/(TVirgin-TNaOH) (keratin in hair) [%]	Damage level normalized to NH3•H2O (keratin in hair)	L Value [1]	Lifting level normalized to NH3•H2O [1]	Relative lifting level in percentage (LVirgin-LAlkalizer)/(LVirgin-LNaOH) [1] [%]	ΔL (change in color lifting) LVirgin-LAlkalizer [1]	IC50 (outer root sheath cells) [mM]	toxicity to the cell, comparison in words (outer root sheath cells)	toxicity to the cell, comparison in words (keratinocytes)	lifting of natural hair color, comparison in words [1]	hair damage / denaturation temperature, comparison in words (keratin in hair)	further results
CC(N)(CO)CO [AMPD, 2-Amino-2-methyl-1,3-propanediol]	4.54	3.84	2.49	–	10.28	–	1.63	–	0.87	–	−13	–	significantly less toxic than ammonium hydroxide	significantly less toxic than ammonium hydroxide	almost as good as MEA and ammonium hydroxide	–	–
Ammonium hydroxide [reference compound]	2.79	–	–	–	10.72	–	1	–	–	–	–	–	–	–	–	–	–
CC(C)(N)CO [AMP, aminomethyl propanol, reference compound]	8.59	1.81	2.32	10.91	–	60.11	3.08	32.5	0.90	76.70	−13.5	–	more toxic to the cell than ammonium hydroxide	more toxic to the cell than ammonium hydroxide	–	–	–
OCCNCCO [DEA, Diethanolamine]	1.79	5.09	2.57	–	10.35	–	0.64	–	0.77	–	−11.5	–	–	–	–	less damaging to hair than the ammonium hydroxide composition	–
CN(C)C(C)(C)CO [DMAMP, 2-Dimethyl-amino-2-methyl-1-propanol]	2.58	0.211	2.38	11.15	–	18.05	0.92	26	0.47	39.77	−7	18	more toxic than ammonium hydroxide, but less toxic than conventional replacement AMP; also recorded: more toxic to the cell than ammonium hydroxide	more toxic than ammonium hydroxide, but less toxic than conventional replacement AMP; also recorded: less toxic to keratinocytes than MEA; also recorded: more toxic to the cell than ammonium hydroxide	–	less damaging to hair than the ammonium hydroxide composition	IC50 (keratinocytes): 33 mM; denaturation temperature in binary combinations, in words (keratin in hair): raised the denaturation temperature; L* value ([1]; Table 8A DMAMP-NH3 series, mole ratio DMAMP/NH3, virgin hair 20.3): 26; L* value ([1]; Table 8B DMAMP-NH3 in low DMAMP percentages, mole ratio DMAMP/NH3, virgin hair 20.3): 24.9
3-Amino-1-propanol [AP]	12	3.26	3.10	–	11.49	83.97	4.30	–	1.20	102.27	−18	–	–	–	better at lifting natural hair color than the ammonium hydroxide/oxidizer mixture; also recorded: outperformed all of them	–	Denaturation Temperature (° C.) (keratin in hair): 138.42 °C
CCC(N)(CO)CO [AEPD, 2-Amino-2-ethyl-1,3-propanediol]	4.17	4.47	2.40	10.33	–	29.18	1.49	30	0.73	62.50	−11	87	significantly less toxic than ammonium hydroxide	significantly less toxic than ammonium hydroxide	not quite as good as secondary amine alkalizer, DEA, but close	performed significantly better than MEA and AMP	denaturation temperature in binary combinations, in words (keratin in hair): lowered the denaturation temperature, but only slightly; L* value ([1]; Table 7 AEPD-NH3 series, mole ratio AEPD/NH3, virgin hair 20.2): 30; L* value [1, 7]: 30.4

Continued, in another order:

ΔT (change in denaturation temperature) TVirgin-TAlkalizer (keratin in hair)	Viscosity (cP × 10^5) [2] [cP × 10^5]	Alkalinity [3] [mL/g]	pH [4, 5]	pH [4]	Compound	% Relative damage level compared to NaOH (TVirgin-TAlkalizer)/(TVirgin-TNaOH) (keratin in hair) [%]	Damage level normalized to NH3•H2O (keratin in hair)	L Value [1]	Lifting level normalized to NH3•H2O [1]	Relative lifting level in percentage (LVirgin-LAlkalizer)/(LVirgin-LNaOH) [1] [%]	ΔL (change in color lifting) LVirgin-LAlkalizer [1]	IC50 (outer root sheath cells) [mM]	toxicity to the cell, comparison in words (outer root sheath cells)	toxicity to the cell, comparison in words (keratinocytes)	lifting of natural hair color, comparison in words [1]	hair damage / denaturation temperature, comparison in words (keratin in hair)	further results
14.29	–	–	–	–	[Na+].[OH-] [NaOH, reference compound]	100	5.12	36.6*	1.17	100	−17.6	–	–	–	–	–	–
8.46	3.02	2.35	10.85	–	NCCO [MEA, monoethanolamine, reference compound]	–	3.03	36	–	–	−17	21.4	more toxic to the cell than ammonium hydroxide	more toxic to the cell than ammonium hydroxide	–	–	IC50 (keratinocytes): 23 mM
3.19	10.1	2.55	10.22	–	NC(CO)CO [Serinol, 2-Amino-1,3-propanediol]	22.32	1.14	31	0.80	68.18	−12	–	–	–	performed significantly less well than ammonium hydroxide	–	denaturation temperature in binary combinations, in words (keratin in hair): lowered the denaturation temperature, but only slightly; L* value ([1]; Table 10 Serinol-NH3 series, mole ratio Serinol/NH3, virgin hair 19.9): 31.2; L* value [1, 6]: 31.2
1.42	4.17	2.43	9.6	–	NC(CO)(CO)CO [Tris, Tromethamine]	–	0.51	27	0.53	–	−8	–	–	–	as good as tertiary alkalizer DMAP	also performed well	L* value ([1]; Table 9 Tris-NH3 series, mole ratio Tris/NH3, virgin hair 20.0): 28; L* value ([1]; Table 11 AMPD-Tris series, mole ratio AMPD/Tris, virgin hair 20.3): 28; L* value [1, 7]: 28.5; L* value [1, 6]: 28.5; L* value / color lifting in binary combinations, in words ([1]; binary combinations of alkalizers): tends to reduce the effectiveness of color lifting
5.83	3.75	2.45	10.56	–	NCC(O)CO (stereo not drawn) [Isoserinol, 3-Amino-1,2-propanediol]	40.80	2.09	36	1.13	96.59	−17	56.3	significantly less toxic than ammonium hydroxide	significantly less toxic than ammonium hydroxide	significantly better than AMP and about the same as MEA, at lifting hair color; also recorded: better at lifting natural hair color than the ammonium hydroxide/oxidizer mixture; also recorded: about the same effectiveness as MEA, and significantly better effectiveness than AMP	performed significantly better than MEA and AMP	IC50 (keratinocytes): 97 mM
0.96	3.23	2.57	10.37	–	CN(C)CC(O)CO (stereo not drawn) [DMAPD, 3-(dimethylamino)-1,2-propanediol]	6.72	0.34	25.5	0.43	36.93	−6.5	–	significantly less toxic than ammonium hydroxide	significantly less toxic than ammonium hydroxide	–	less damaging to hair than the ammonium hydroxide composition	–
